Target: T1, GlmR (Enterococcus faecalis, UniProt A0ACD6TA08)
T1 construct: gene OG1RF_10501
Assay: thermal shift assay (SYPRO Orange)
Format: binding
Conditions: 10 uM protein, 1 mM ligand

## CC(=O)N[C@H]1[C@@H](OP(=O)(O)OP(=O)(O)OC[C@H]2O[C@@H](n3ccc(=O)[nH]c3=O)[C@H](O)[C@@H]2O)O[C@H](CO)[C@@H](O)[C@@H]1O [UDP-GlcNAc]
  thermal shift: When incubated with UDP-GlcNAc, both YvcJ and GlmR exhibited clear thermal shifts

— article PMC10986989, “Reciprocal regulation of enterococcal cephalosporin resistance by products of the autoregulated yvcJ-glmR-yvcL operon enhances fitness during cephalosporin exposure” (PLOS Genetics, 2024)
